Experiments:
MC38 colon carcinoma = experiment: MC38 protection (prophylactic vaccination) model; assay type: in vivo, HHD mice; conditions: immunization days -14 and -7, tumor challenge day 0 (FIG. 9B)
Text: FIGS. 9A-9B show a series of graphs illustrating induction of specific/protective CD8^+ T cells reactive against TASA as a consequence of DC/peptide-based vaccination. In FIG. 9A, HHD mice (five animals/cohort) were vaccinated twice (d-14, d-7) subcutaneously with PBS or with isologous DC.IL12 pulsed with PBS or synthetic peptides (Table 6) derived from the indicated TASA. In cases where more than 1 peptide was identified for a given target antigen, an equimolar pool of the indicated peptides (each 10 μM) was pulsed onto DC.IL12 and used for vaccination in the relevant cohort. One week after the second immunization, spleens were harvested and splenic CD8^+ T cells isolated using MACS-beads (Miltenyi). T cells were stimulated in vitro for 48 h using the HLA-A2^+ T2 cell line pulsed with relevant TASA vs. irrelevant HIV-nef190-198 ([…]; ref. 24) peptides. Cell-free supernatants were then recovered and IFN-γ levels by ELISA. Data are reported as mean+/−SD for triplicate ELISA determinations, and are representative of 3 independent experiments performed. *p<0.05 vs. HIV-nef control peptide responses. In FIG. 9B, HHD mice were vaccinated twice (days −14 and −7; right flank) subcutaneously with PBS or with isologous DC.IL12 pulsed with PBS or synthetic TASA peptides as indicated in FIG. 1A. In cases where more than 1 peptide is identified for a given target antigen, an equimolar pool of the indicated peptides (each 10 μM) was pulsed onto DC.IL12 and used for vaccination in the relevant cohort. One week after the booster vaccine (i.e. day zero), animals were challenged subcutaneously on their left flank with 2×10^6 MC38 colon carcinoma cells. Tumor growth was then monitored every 3-4 days through day 24. All data represent mean tumor area (in mm^2)+/−SD determined from 5 mice/cohort, and are representative of three independent experiments performed. *p<0.05 versus DC only on the indicated days.
Vaccine Experiments. For prophylactic experiments, HHD mice were immunized subcutaneously on the right flank with 100 μl PBS or PBS containing 10^6 syngenic DC.IL12 cells that had been untreated or pre-pulsed for 4 h at 37° C. with 10 μM synthetic peptide(s). Immunizations occurred on days −14 and −7, with mice subsequently receiving injections of MC38 (2×10^6) tumor cells in the left flank on d0. In all cases, treatment groups contained 5 mice per cohort. For analysis of tumor cellular composition in repeat experiments, MC38 tumors were isolated by surgical resection 10 days after tumor inoculation and prepared for fluorescence imaging, as described below. […] Mice were then untreated or treated with control, syngenic DC.IL12 or DC.IL12 (10^6 cells injected subcutaneously in the left flank on days 7 and 14) pulsed with synthetic TBVA peptides. In some assays, as indicated, in vivo antibody depletions (on days 6, 13 and 20 post-tumor inoculation to assess early involvement or on days 60 and 67 or 180 and 187 to assess late involvement) of protective CD4^+ T cells or CD8^+ T cells were performed and monitored as previously described (Zhao et al., Mol Ther., 19:805-814, 2011). In all cases, tumor size (area) was monitored every 3-4 days and is reported as mean+/−SD in mm^2.
The DLK1, EphA2, HBB, NG2, NRP1, NRP2, PDGFRβ, PSMA, RGS5, TEM1, VEGFR1 and VEGFR2 antigens were expressed in situ by blood vessel cells in the MC38 colon carcinoma TME (FIG. 14). Protection of HHD mice against a challenge with HLA-A2^neg MC38 tumor cells injected subcutaneously on day zero was assayed with immunization with TBVA-derived peptides on days −14 and −7. […]

[1] = test system: MC38 tumor microenvironment; experiment: Fluorescence imaging of MC38 tumor sections after prophylactic vaccination; assay type: in vivo, HHD mice; conditions: day 14 tumors; p<0.05 vs. untreated or DC.IL12/no peptide
Text: Day 14 MC38 tumors were harvested from HHD mice that had been vaccinated as outlined in FIG. 9B with the indicated peptides (or control PBS or DC.IL12 alone=No peptide). In FIG. 10A, six-micron tissue sections were co-stained with anti-CD8 (green) and anti-NG2 (red) antibodies and imaged by fluorescence microscopy. Blue signal=nuclear counterstain using 4′,6-diamidino-2-phenylindole (DAPI). FIG. 10B provides a summary of the mean+/−SD number of CD8^+ cells per high-power field (HPF) in MC38 tumors isolated from control or vaccinated mice as depicted in FIG. 10A. In FIG. 10C, tissue sections were co-stained with anti-CD31 (green) and anti-NG2 (red) antibodies and imaged by fluorescence microscopy. Blue signal=nuclear counterstain using DAPI. In FIG. 10D, the mean+/−SD number of CD31^+ vessels per HPF of MC38 tumors in control or vaccinated mice are summarized Representative data is depicted from 1 of 3 independent experiments performed. *p<0.05 versus DC only or untreated control mice.
Fluorescence Imaging of Tumor Sections. Tumor tissue samples were prepared and 6 micron sections prepared as previously reported (Komita et al., Cancer Res., 68:8076-8084, 2008). The following Abs were used: (for T cell analyses), rabbit anti-mouse NG2 (Millipore, Bedford, Mass.) and alexa488-conjugated anti-CD4 or -CD8β antibodies or matching isotype controls (all from BD-Biosciences); (for vascular analyses), rat anti-mouse CD31 (BD-Biosciences) and rabbit anti-mouse NG2 (Millipore) Abs; (for TBVA), rat anti-mouse CD31 (BD-Biosciences) and guinea pig anti-mouse NG2 Abs, along with anti-TBVA as described in Example 1. Imaging was performed using an Olympus Fluoview 500 Confocal microscope (Olympus America, Center Valley, Pa.).
Protective vaccines incorporating TBVA peptides promote enhanced infiltration of the TME by CD8^+ T cells in association with an inhibition of tumor vascularity. MC38 tumor lesions from all cohorts of animals with evidence of disease on day 14 (post-tumor inoculation) were isolated and immunofluorescence microscopy on tumor sections was performed. […] In marked contrast, CD4^+ T cell infiltration in the TME was sparse and the data were indistinguishable when comparing control vs. vaccinated mice (FIG. 17). […] Correlative analyses indicated an association between the anti-tumor efficacy of vaccines and their ability to promote CD8^+ T cell infiltration and reduced vascularity in the TME (FIG. 16).

EphA2: EphA2-derived peptide 883-891 pulsed onto DC or DC.IL12 (TLADFDPRV; listed as Homo sapiens)
Protection against HLA-A2neg MC38 tumor challenge (MC38 colon carcinoma): effective in preventing HLA-A2^neg MC38 tumor establishment or they resulted in the regression of tumors
Suppression in CD31+ vessel counts in the MC38 TME [1]: greatest degree of suppression in CD31^+ vessel counts

RGS5: RGS5-derived peptide 5-13 pulsed onto DC or DC.IL12 (LAALPHSCL; listed as Homo sapiens)
Protection against HLA-A2neg MC38 tumor challenge (MC38 colon carcinoma): effective in preventing HLA-A2^neg MC38 tumor establishment or they resulted in the regression of tumors
Suppression in CD31+ vessel counts in the MC38 TME [1]: greatest degree of suppression in CD31^+ vessel counts

TEM1: TEM1-derived peptide 691-700 pulsed onto DC or DC.IL12 (LLVPTCVFLV; listed as Homo sapiens)
Protection against HLA-A2neg MC38 tumor challenge (MC38 colon carcinoma): effective in preventing HLA-A2^neg MC38 tumor establishment or they resulted in the regression of tumors
Suppression in CD31+ vessel counts in the MC38 TME [1]: greatest degree of suppression in CD31^+ vessel counts

Reference: patent US9937250B2, “Immunogenic tumor associated stromal cell antigen peptides and methods of their use” (University of Pittsburgh—Of the Commonwealth System of …, priority 2011, dated 2018)
